Measurements published in patent US8623400B2, “Drug-carrying contact lens and method for fabricating the same” (National Chiao Tung University, priority 2011, dated 2014).

Experiment: Drug-release test of drug-carrying contact lenses
Assay type: physicochemical
From the text: The drug-release tests are respectively performed on the first encapsulation-type drug-carrying contact lens and the drug-soaking type contact lens of the present invention to understand the drug-release thereof.
In one embodiment, the encapsulation-type drug-carrying contact lens adopts a hydrophobic antibiotic—Azithromycin, which is an oral azalide group antibiotic that is a subgroup of macrolides, and which is a broad-spectrum antibiotic effective to Gram-positive bacteria, Gram-negative bacteria, anaerobic bacteria, Chlamydia, helicoids, etc. […] Such a phenomenon may be attributed to the fact: the higher the temperature, the higher the oscillation frequency of the drug molecules, and the greater the quantity of the drug molecules diffusing out. In the present invention, the drug-release amount can be quantitively controlled according to the application environment. Therefore, the present invention has a potential to realize a customized drug-carrying contact lens.
In one embodiment, the drug-soaking type drug-carrying contact lens adopts Vitamin B12, which is a hydrophilic drug and effective to pernicious anaemia, and which is a red crystalline powder likely to absorb humidity, easy to dissolve in water and alcohol, and slightly unstable in the environment of light, strong acid, and base. […] Such a phenomenon is attributed to the fact that the greater the concentration difference, the higher the driving force of drug molecule diffusion.

Vitamin B12
release of Vitamin B12 versus drug-carrying contact lens free of drug carriers (drug-soaking type drug-carrying contact lens containing the drug carriers, FIG. 7(a)): more slowly
drug-release rate with respect to drug concentration (drug-soaking type drug-carrying contact lens, different concentrations of Vitamin B12, FIG. 7(b)): increases with the concentration of the drug molecules

CC[C@H]1OC(=O)[C@H](C)[C@@H](O[C@H]2C[C@@](C)(OC)[C@@H](O)[C@H](C)O2)[C@H](C)[C@@H](O[C@@H]2O[C@H](C)C[C@H](N(C)C)[C@H]2O)[C@](C)(O)C[C@@H](C)CN(C)[C@H](C)[C@@H](O)[C@]1(C)O [Azithromycin]
release quantity of Azithromycin with respect to temperature (encapsulation-type drug-carrying contact lens, FIG. 6): increases with the temperature
